Test results taken from PMC9090415, “Discovery of small molecule inhibitors of Plasmodium falciparum apicoplast DNA polymerase” (Journal of Enzyme Inhibition and Medicinal Chemistry, 2022).

Target: P. falciparum apicoplast DNA polymerase (Pf-apPOL) (Plasmodium falciparum, UniProt Q8ILY1)
Assay: Fluorescence-based high-throughput DNA polymerase assay (molecular beacon), primary screen and dose-response
Type: biochemical
Settings: for DNA Pol: 90 min, 10 µM; for % inhibition Apo pol 10' 2.5 / % inhibition Apo pol 10' 5 / % inhibition Apo pol 10' 10 / % inhibition Apo pol 10' 20 / % inhibition Apo pol 10' 40 / % inhibition Apo pol 10' 80: read at 10'; for % inhibition Apol 90' 2.5 / % inhibition Apol 90' 5 / % inhibition Apol 90' 10 / % inhibition Apol 90' 20 / % inhibition Apol 90' 40 / % inhibition Apol 90' 80 / % inhibition ApPOL 90' 2.5 / % inhibition ApPOL 90' 5 / % inhibition ApPOL 90' 10 / % inhibition ApPOL 90' 20 / % inhibition ApPOL 90' 40 / % inhibition ApPOL 90' 80: read at 90'; for % inhibition apPOL 180' 2.5 / % inhibition apPOL 180' 5 / % inhibition apPOL 180' 10 / % inhibition apPOL 180' 20 / % inhibition apPOL 180' 40 / % inhibition apPOL 180' 80: read at 180'; for % inhibition Apo pol 5' 2.5 / % inhibition Apo pol 5' 5 / % inhibition Apo pol 5' 10 / % inhibition Apo pol 5' 20 / % inhibition Apo pol 5' 40 / % inhibition Apo pol 5' 80: read at 5'; for % inhibition Apol 40' 2.5 / % inhibition Apol 40' 5 / % inhibition Apol 40' 10 / % inhibition Apol 40' 20 / % inhibition Apol 40' 40 / % inhibition Apol 40' 80: read at 40'
Summary of the method: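 Single-point screening used 10 µM compound with 20 nM polymerase, 20 nM hairpin substrate and 6 µM dNTPs for 90 min at 25 °C. Confirmatory titrations (2.5–80 µM) followed fluorescence at three times, and IC50 was derived from a fit including a cooperativity term n.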

[1] = 186 hits, DNA Pol (screen value), unit not given
[2] = 'DNA Pol' (screen value), unit not given

Sequence of P. falciparum apicoplast DNA polymerase (Pf-apPOL) (Q8ILY1 entry or part of it): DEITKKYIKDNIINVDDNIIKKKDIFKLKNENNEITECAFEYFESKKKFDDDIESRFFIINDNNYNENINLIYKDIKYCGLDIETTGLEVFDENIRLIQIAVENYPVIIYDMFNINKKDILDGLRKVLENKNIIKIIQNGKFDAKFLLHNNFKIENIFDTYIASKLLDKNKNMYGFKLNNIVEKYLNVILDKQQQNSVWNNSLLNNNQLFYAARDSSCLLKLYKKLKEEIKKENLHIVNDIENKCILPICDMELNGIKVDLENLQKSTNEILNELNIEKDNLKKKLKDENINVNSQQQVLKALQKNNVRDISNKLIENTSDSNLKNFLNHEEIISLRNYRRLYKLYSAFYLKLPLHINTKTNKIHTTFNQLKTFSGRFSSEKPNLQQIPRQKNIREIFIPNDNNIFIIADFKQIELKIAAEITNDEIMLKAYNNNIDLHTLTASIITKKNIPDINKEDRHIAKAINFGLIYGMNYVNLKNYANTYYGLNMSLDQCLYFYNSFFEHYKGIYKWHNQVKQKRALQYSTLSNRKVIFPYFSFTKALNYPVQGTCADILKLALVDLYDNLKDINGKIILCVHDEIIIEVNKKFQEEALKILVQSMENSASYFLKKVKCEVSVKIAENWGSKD

SMILES: Cc1ccc(-n2nnc(C(=O)O)c2-c2ccccn2)c(F)c1 [Molecule 54, Cc1ccc(c(c1)F)n1nnc(c1c1ccccn1)C(=O)O]
- DNA Pol ('DNA Pol' of the 186 hits list (primary screen value)): 25
- DNA Pol (DNA Pol (primary screen value)): 25
- % inhibition Apo pol 10' (DRC-1, concentration 2.5): 7.865%
- % inhibition Apo pol 10' (DRC-1, concentration 5): 13.3823%
- % inhibition Apo pol 10' (DRC-1, concentration 10): 36.76%
- % inhibition Apo pol 10' (DRC-1, concentration 20): 54.7705%
- % inhibition Apo pol 10' (DRC-1, concentration 40): 63.8546%
- % inhibition Apo pol 10' (DRC-1, concentration 80): 49.8653%
- % inhibition Apol 90' (DRC-1, concentration 2.5): 0.06529%
- % inhibition Apol 90' (DRC-1, concentration 5): 1.171%
- % inhibition Apol 90' (DRC-1, concentration 10): 17.5602%
- % inhibition Apol 90' (DRC-1, concentration 20): 37.4412%
- % inhibition Apol 90' (DRC-1, concentration 40): 61.51%
- % inhibition Apol 90' (DRC-1, concentration 80): 66.8702%
- % inhibition apPOL 180' (DRC-1, concentration 2.5): -5.444%
- % inhibition apPOL 180' (DRC-1, concentration 5): -7.146%
- % inhibition apPOL 180' (DRC-1, concentration 10): 5.348%
- % inhibition apPOL 180' (DRC-1, concentration 20): 21.3721%
- % inhibition apPOL 180' (DRC-1, concentration 40): 53.298%
- % inhibition apPOL 180' (DRC-1, concentration 80): 71.3072%
- % inhibition Apo pol 5' (DRC-2, concentration 2.5): 5%
- % inhibition Apo pol 5' (DRC-2, concentration 5): 15%
- % inhibition Apo pol 5' (DRC-2, concentration 10): 31%
- % inhibition Apo pol 5' (DRC-2, concentration 20): 33%
- % inhibition Apo pol 5' (DRC-2, concentration 40): 21%
- % inhibition Apo pol 5' (DRC-2, concentration 80): -14%
- % inhibition Apol 40' (DRC-2, concentration 2.5): 5.55%
- % inhibition Apol 40' (DRC-2, concentration 5): 10%
- % inhibition Apol 40' (DRC-2, concentration 10): 27%
- % inhibition Apol 40' (DRC-2, concentration 20): 42%
- % inhibition Apol 40' (DRC-2, concentration 40): 48%
- % inhibition Apol 40' (DRC-2, concentration 80): 33%
- % inhibition ApPOL 90' (DRC-2, concentration 2.5): 3.47%
- % inhibition ApPOL 90' (DRC-2, concentration 5): 6%
- % inhibition ApPOL 90' (DRC-2, concentration 10): 22%
- % inhibition ApPOL 90' (DRC-2, concentration 20): 39%
- % inhibition ApPOL 90' (DRC-2, concentration 40): 52%
- % inhibition ApPOL 90' (DRC-2, concentration 80): 45%
- % inhibition apPOL 180' (DRC-2, concentration 2.5): 0.3%
- % inhibition apPOL 180' (DRC-2, concentration 5): -1.15%
- % inhibition apPOL 180' (DRC-2, concentration 10): 13%
- % inhibition apPOL 180' (DRC-2, concentration 20): 28%
- % inhibition apPOL 180' (DRC-2, concentration 40): 51%
- % inhibition apPOL 180' (DRC-2, concentration 80): 55%

SMILES: Cc1ccc(N2CCC(NC(=O)Cc3cccs3)C2=O)cc1C (centres unmarked) [Molecule 57, O=C(NC1CCN(C1=O)c1ccc(c(c1)C)C)Cc1cccs1]
- DNA Pol [1]: 30
- DNA Pol [2]: 30
- % inhibition Apo pol 10' 2.5 (DRC-1, concentration 2.5): -4.081%
- % inhibition Apo pol 10' 5 (DRC-1, concentration 5): 5.106%
- % inhibition Apo pol 10' 10 (DRC-1, concentration 10): 22.9359%
- % inhibition Apo pol 10' 20 (DRC-1, concentration 20): 41.5954%
- % inhibition Apo pol 10' 40 (DRC-1, concentration 40): 44.443%
- % inhibition Apo pol 10' 80 (DRC-1, concentration 80): 44.3208%
- % inhibition Apol 90' 2.5 (DRC-1, concentration 2.5): -2.123%
- % inhibition Apol 90' 5 (DRC-1, concentration 5): 4.8282%
- % inhibition Apol 90' 10 (DRC-1, concentration 10): 19.3171%
- % inhibition Apol 90' 20 (DRC-1, concentration 20): 42.7079%
- % inhibition Apol 90' 40 (DRC-1, concentration 40): 53.5477%
- % inhibition Apol 90' 80 (DRC-1, concentration 80): 61.4172%
- % inhibition apPOL 180' 2.5 (DRC-1, concentration 2.5): -1.073%
- % inhibition apPOL 180' 5 (DRC-1, concentration 5): 1.4295%
- % inhibition apPOL 180' 10 (DRC-1, concentration 10): 11.4485%
- % inhibition apPOL 180' 20 (DRC-1, concentration 20): 30.1368%
- % inhibition apPOL 180' 40 (DRC-1, concentration 40): 47.6529%
- % inhibition apPOL 180' 80 (DRC-1, concentration 80): 62.3607%
- % inhibition Apo pol 5' (DRC-2, concentration 10): 24%
- % inhibition Apo pol 5' (DRC-2, concentration 20): 24%
- % inhibition ApPOL 90' (DRC-2, concentration 20): 47%
- % inhibition ApPOL 90' (DRC-2, concentration 40): 47%
- % inhibition Apo pol 5' 2.5 (DRC-2, concentration 2.5): -1.72%
- % inhibition Apo pol 5' 5 (DRC-2, concentration 5): 2.54%
- % inhibition Apo pol 5' 10 (DRC-2, concentration 10): 24%
- % inhibition Apo pol 5' 20 (DRC-2, concentration 20): 24%
- % inhibition Apo pol 5' 40 (DRC-2, concentration 40): 6.44%
- % inhibition Apo pol 5' 80 (DRC-2, concentration 80): -4.26%
- % inhibition Apol 40' 2.5 (DRC-2, concentration 2.5): -1.82%
- % inhibition Apol 40' 5 (DRC-2, concentration 5): 5.58%
- % inhibition Apol 40' 10 (DRC-2, concentration 10): 32%
- % inhibition Apol 40' 20 (DRC-2, concentration 20): 44%
- % inhibition Apol 40' 40 (DRC-2, concentration 40): 39%
- % inhibition Apol 40' 80 (DRC-2, concentration 80): 37%
- % inhibition ApPOL 90' 2.5 (DRC-2, concentration 2.5): -2.11%
- % inhibition ApPOL 90' 5 (DRC-2, concentration 5): 5%
- % inhibition ApPOL 90' 10 (DRC-2, concentration 10): 30%
- % inhibition ApPOL 90' 20 (DRC-2, concentration 20): 47%
- % inhibition ApPOL 90' 40 (DRC-2, concentration 40): 47%
- % inhibition ApPOL 90' 80 (DRC-2, concentration 80): 48%
- % inhibition apPOL 180' 2.5 (DRC-2, concentration 2.5): -1.11%
- % inhibition apPOL 180' 5 (DRC-2, concentration 5): 3.34%
- % inhibition apPOL 180' 10 (DRC-2, concentration 10): 22%
- % inhibition apPOL 180' 20 (DRC-2, concentration 20): 43%
- % inhibition apPOL 180' 40 (DRC-2, concentration 40): 49%
- % inhibition apPOL 180' 80 (DRC-2, concentration 80): 55%

SMILES: Cc1ccsc1Cn1c(C)ccc1C [Molecule 70, Cc1ccsc1Cn1c(C)ccc1C]
- DNA Pol [1]: 77
- DNA Pol [2]: 77
- % inhibition Apo pol 10' 2.5 (DRC-1, concentration 2.5): 0.1737%
- % inhibition Apo pol 10' 5 (DRC-1, concentration 5): 5.431%
- % inhibition Apo pol 10' 10 (DRC-1, concentration 10): 19.8551%
- % inhibition Apo pol 10' 20 (DRC-1, concentration 20): 37.488%
- % inhibition Apo pol 10' 40 (DRC-1, concentration 40): 56.0716%
- % inhibition Apo pol 10' 80 (DRC-1, concentration 80): 76.6416%
- % inhibition Apol 90' 2.5 (DRC-1, concentration 2.5): -5.458%
- % inhibition Apol 90' 5 (DRC-1, concentration 5): -2.713%
- % inhibition Apol 90' 10 (DRC-1, concentration 10): 8.027%
- % inhibition Apol 90' 20 (DRC-1, concentration 20): 21.1278%
- % inhibition Apol 90' 40 (DRC-1, concentration 40): 39.127%
- % inhibition Apol 90' 80 (DRC-1, concentration 80): 69.1434%
- % inhibition apPOL 180' 2.5 (DRC-1, concentration 2.5): -10.1468%
- % inhibition apPOL 180' 5 (DRC-1, concentration 5): -7.921%
- % inhibition apPOL 180' 10 (DRC-1, concentration 10): -1.934%
- % inhibition apPOL 180' 20 (DRC-1, concentration 20): 6.387%
- % inhibition apPOL 180' 40 (DRC-1, concentration 40): 21.8537%
- % inhibition apPOL 180' 80 (DRC-1, concentration 80): 54.6421%
- % inhibition Apol 40' (DRC-2, concentration 80): 62%
- % inhibition apPOL 180' (DRC-2, concentration 2.5): -6%
- % inhibition apPOL 180' (DRC-2, concentration 5): -6%
- % inhibition apPOL 180' (DRC-2, concentration 80): 62%
- % inhibition Apo pol 5' 2.5 (DRC-2, concentration 2.5): -3.3%
- % inhibition Apo pol 5' 5 (DRC-2, concentration 5): 5.66%
- % inhibition Apo pol 5' 10 (DRC-2, concentration 10): 20%
- % inhibition Apo pol 5' 20 (DRC-2, concentration 20): 32%
- % inhibition Apo pol 5' 40 (DRC-2, concentration 40): 48%
- % inhibition Apo pol 5' 80 (DRC-2, concentration 80): 47%
- % inhibition Apol 40' 2.5 (DRC-2, concentration 2.5): -1.81%
- % inhibition Apol 40' 5 (DRC-2, concentration 5): 4%
- % inhibition Apol 40' 10 (DRC-2, concentration 10): 18%
- % inhibition Apol 40' 20 (DRC-2, concentration 20): 33%
- % inhibition Apol 40' 40 (DRC-2, concentration 40): 56%
- % inhibition Apol 40' 80 (DRC-2, concentration 80): 62%
- % inhibition ApPOL 90' 2.5 (DRC-2, concentration 2.5): -3%
- % inhibition ApPOL 90' 5 (DRC-2, concentration 5): -0.174%
- % inhibition ApPOL 90' 10 (DRC-2, concentration 10): 14%
- % inhibition ApPOL 90' 20 (DRC-2, concentration 20): 28%
- % inhibition ApPOL 90' 40 (DRC-2, concentration 40): 54%
- % inhibition ApPOL 90' 80 (DRC-2, concentration 80): 64%
- % inhibition apPOL 180' 2.5 (DRC-2, concentration 2.5): -6%
- % inhibition apPOL 180' 5 (DRC-2, concentration 5): -6%
- % inhibition apPOL 180' 10 (DRC-2, concentration 10): 5.64%
- % inhibition apPOL 180' 20 (DRC-2, concentration 20): 16%
- % inhibition apPOL 180' 40 (DRC-2, concentration 40): 45%
- % inhibition apPOL 180' 80 (DRC-2, concentration 80): 62%
